The source of these data is ChEMBL document CHEMBL2169792, “Synthesis of new 4-thiazolidinone-, pyrazoline-, and isatin-based conjugates with promising antitumor activity” (J Med Chem, 2012).

In general, GI50 refers to the concentration that inhibits growth by half. The TGI is the concentration giving total growth inhibition. What is called LC50 is the concentration lethal to half of the exposed cells or organisms. Low readings indicate greater toxicity, high ones lower toxicity.

Data set [1] is described as follows: Cytotoxicity against human CNS cancer cells after 48 hrs by SRB assay. The class given is functional. The note with it: Cancer cell lines. On the technique in general: Sulforhodamine B stains cellular protein and so reports cell mass.
A short description of data set [2]: Toxicity in mouse. The note with it: in vivo. The class given is organism-based.
In data set [3] the test system is U-251. As to the kind of experiment: Cytotoxicity against human U251 cells assessed as cell growth at 10 uM after 48 hrs by SRB assay. The class given is functional. The note with it: U-251, 48 h, read-out: Activity.
Data set [4] can be described thus: Cytotoxicity against human renal cancer cells after 48 hrs by SRB assay. The note with it: Cancer cell lines. The format is functional.
Data set [5] in a line: Cytotoxicity against human ovarian cancer cells after 48 hrs by SRB assay. The class given is functional. The settings on record: Cancer cell lines.
Data set [6] in a line: Cytotoxicity against human breast cancer cells after 48 hrs by SRB assay. The format is functional. The settings on record: Cancer cell lines.
Data set [7] can be described thus: Cytotoxicity against human melanoma cells after 48 hrs by SRB assay. The class given is functional. The settings on record: Melanoma cell; for CC50: read-out: LC50 (the source's name).
In data set [8] the test system is Mus musculus. As to the kind of experiment: Antitumor activity in ip dosed athymic nude mouse hollow fiber model assessed as reduction of viable cell mass. The class given is functional, organism-based.
A short description of data set [9]: Cytotoxicity against human prostate cancer cells after 48 hrs by SRB assay. The format is functional. The note with it: Cancer cell lines.
Data set [10] in a line: Cytotoxicity against human colon cancer cells after 48 hrs by SRB assay. The format is functional. The settings on record: Cancer cell lines.
Data set [11] is described as follows: Cytotoxicity against human non-small cell lung cancer cells after 48 hrs by SRB assay. The class given is functional. The settings on record: Cancer cell lines; for CC50: read-out: LC50 (the source's name).
Data set [12] can be described thus: Cytotoxicity against human leukemia cells after 48 hrs by SRB assay. The class given is functional. The settings on record: Leukemia cell; for CC50: read-out: LC50 (the source's name).
For data set [13], the system named is CCRF-CEM. As to the kind of experiment: Cytotoxicity against human CCRF-CEM cells assessed as cell growth at 10 uM after 48 hrs by SRB assay. The class given is functional. The note with it: read-out: Activity.

Molecules are shown by their SMILES. Calls of active or inactive are those of the source. The rule behind the calls is not given here. Where only a bound is given, the exact number is not on record here.

As for `O=C1N=C(N2N=C(c3ccc4ccccc4c3)CC2c2ccc(Cl)cc2)S/C1=C1/C(=O)Nc2ccccc21` (stereo not drawn), the GI50 in [1] was 8.8 µM; in data set [4], 0.4 µM; in [5], 15.4 µM; in data set [6], 0.74 µM; in data set [7], 0.35 µM; in data set [9] it was 0.4 µM. The values for the GI50 in data set [10], in [11] and in data set [12] were 0.53 µM, 0.46 µM and 19.1 µM, respectively. The compound also returned an LC50 (concentration giving 50% net cell kill) in data set [1] of 75.9 µM. Further, the TGI stood at 27.3 µM in [1]; 42.1 µM in [4]; 56.1 µM in data set [5]; 38.3 µM in data set [6]; 24.7 µM in [7]; 50.7 µM in [9]. Further, the TGI worked out at 70.3 µM in data set [10], 20.9 µM in data set [11] and 71.6 µM in data set [12]. The MTD in data set [2] was above 400 mg/kg. Further, the growth at 10 µM in data set [3] is -25.1%. In addition, the values for the LC50 in [4] and in [9] were 75.5 µM and 100 µM, respectively. The LC50 (concentration causing 50% net cell kill) in data set [5] turned out to be 100 µM; in [6] it was 91.7 µM. In addition, the CC50 in data set [7] was determined as 83 µM; in [11], 100 µM; in data set [12], 93.1 µM. In addition, in data set [8], the outcome was inactive. The LC50 (concentration lethal to 50% of cells) in [10] turned out to be 83.8 µM.
For the compound `O=C(O)CN1C(=O)C(n2nc(-c3ccccc3)cc2-c2ccc(Cl)cc2)c2ccccc21` (stereo not drawn), in data set [13], the growth at 10 µM was found to be 97.7%.
Turning to `O=C(O)CN1C(=O)C(n2nc(-c3ccc4ccccc4c3)cc2-c2ccc(Cl)cc2)c2ccccc21` (stereo not drawn), the growth at 10 µM in [13] worked out at 103%.
On the same count and under the same terms, under `COc1ccc(-c2cc(-c3ccc(Cl)cc3)n(C3C(=O)Nc4ccccc43)n2)cc1` (stereo not drawn) stands 75.6%.
Turning to `CN(C)c1ccc(C2CC(c3ccccc3)=NN2C2=NC(=O)/C(=C3\C(=O)Nc4ccccc43)S2)cc1` (stereo not drawn), the GI50 in data set [1] amounted to 1.11 µM; in data set [4], 6.37 µM; in data set [5], 1.22 µM; in [6] it was 5.26 µM; in data set [7] it was 6.9 µM; in data set [9], 0.27 µM. For the same compound, the 50% growth inhibitory concentration (GI50) turned out to be 2.55 µM in data set [10], 7.42 µM in [11] and 33.9 µM in data set [12]. In [1], this compound had an LC50 (concentration giving 50% net cell kill) of 41.6 µM. Moreover, the TGI in data set [1] is 3.24 µM; in data set [4] it was 18.8 µM; in data set [5] it was 39.7 µM; in data set [6], 20.2 µM; in data set [7], 29.4 µM; in [9] it was 34 µM. Also, the TGI in [10] is 35.3 µM; in [11], 25.2 µM; in data set [12] it was 45.6 µM. The compound further had an MTD in data set [2] above 400 mg/kg. In addition, in data set [3], the growth at 10 µM is -39.6%. The LC50 came out at 43 µM in data set [4] and 41.4 µM in data set [9]. Further, the LC50 (concentration causing 50% net cell kill) is 47.1 µM in [5] and 57.3 µM in data set [6]. Further, the CC50 in [7] was 43.9 µM; in [11], 49 µM; in data set [12], 94.8 µM. Moreover, in [8], the outcome was inactive. Also, the LC50 (concentration lethal to 50% of cells) in [10] was 40.4 µM.
